Measured values: the SangsterLogP compilation

experiment: method code SF-HPLC, from Marrel, C.; Boss, G.; Van, H.; Testa, B.; Cooper, D.; Jenner, P.; Marsden, C. (1985). L-DOPA esters as potential prodrugs. Part. I. Physicochemical properties. Eur J Med Chem, 20(5)459-465.; settings: not given

logP	SMILES
0.08	COCC(C)OC(=O)[C@@H](N)Cc1ccc(O)c(O)c1 (stereo not given in full)
0.47	N[C@@H](Cc1ccc(O)c(O)c1)C(=O)OCC1CCCCO1 (stereo not given in full)
-0.49	CC(O)COC(=O)[C@@H](N)Cc1ccc(O)c(O)c1 (stereo not given in full)

same assay, conditions: pH 7.4

SMILES	logD
COc1ccc(CCOC(=O)[C@@H](N)Cc2ccc(O)c(O)c2)cc1	1.5
N[C@@H](Cc1ccc(O)c(O)c1)C(=O)OCCc1ccc(Cl)cc1	2.12
N[C@@H](Cc1ccc(O)c(O)c1)C(=O)OC1CCCCC1	1.53
N[C@@H](Cc1ccc(O)c(O)c1)C(=O)OCCOc1ccccc1	1.35

Other lines, results leading:

logD	SMILES
1.57	N[C@@H](Cc1ccc(O)c(O)c1)C(=O)OCCc1ccccc1
0.55	CCCOC(=O)[C@@H](N)Cc1ccc(O)c(O)c1
0.01	CCOC(=O)[C@@H](N)Cc1ccc(O)c(O)c1
